The values that follow come from patent US7786134B2, “Lipophilic anticancer drug compounds, compositions and related methods” (Sonus Pharmaceuticals, Inc., priority 2005, dated 2010).

The subject of experiment [1] is SKOV-3 (ovarian). Description: In vitro cytotoxicity (GI50), Sulforhodamine B staining, SKOV-3. Format: cell-based. The settings on record: SKOV-3 cells, 48 hours contact, read-out: Concentration that produce 50% cell growth inhibition (GI50) SKOV-3 (OVARIAN). How it is done: (§1) The study was performed using a solution of the lipophilic anticancer drug compounds in DMSO (1 mM) diluted in the corresponding cell media. The cells were in contact with varying concentrations of the test article for a period of 48 hours. At the end of 48 hours, staining with Sulforhodamine B was performed to determine the number of viable cells and calculate the degree of cellular growth inhibition as compared to a control group.

In experiment [2] the test system is HCT-15 (colorectal). Description: In vitro cytotoxicity (GI50), Sulforhodamine B staining, HCT-15. Format: cell-based. The settings on record: HCT-15 cells, 48 hours contact, read-out: Concentration that produce 50% cell growth inhibition (GI50) HCT-15 (COLON). How it is done: as §1
Background: The SRB assay estimates cell density from bound dye.

In experiment [3] the test system is HCT-116 (COLON). The experiment in a line: In vitro cytotoxicity (GI50), Sulforhodamine B staining, HCT-116. It is filed as cell-based. The note with it: HCT-116 cells, 48 hours contact, read-out: Concentration that produce 50% cell growth inhibition (GI50) HCT-116 (COLON). Here is the method: as §1
Experiment [4] deals with H460 (non-small cell lung). Description: In vitro cytotoxicity (GI50), Sulforhodamine B staining, H460. It is filed as cell-based. The note with it: H460 cells, 48 hours contact, read-out: Concentration that produce 50% cell growth inhibition (GI50) H460 (NSCLC). Here is the method:
as §1

The test system of experiment [5] is SKOV-3 (ovarian). The note with it: SKOV-3 cells, National Cancer Institute (NCI) GI50 values; read-out: Concentration that produce 50% cell growth inhibition (GI50) SKOV-3 (OVARIAN); cited from earlier work.
The subject of experiment [6] is H460 (non-small cell lung). The settings on record: H460 cells, National Cancer Institute (NCI) GI50 values; read-out: Concentration that produce 50% cell growth inhibition (GI50) H460 (NSCLC); cited from earlier work.
The test system of experiment [7] is HCT-15 (colorectal). The note with it: HCT-15 cells, National Cancer Institute (NCI) GI50 values; read-out: Concentration that produce 50% cell growth inhibition (GI50) HCT-15 (COLON); cited from earlier work.
Experiment [8] has as its system HCT-116 (COLON). The settings on record: HCT-116 cells, National Cancer Institute (NCI) GI50 values; read-out: Concentration that produce 50% cell growth inhibition (GI50) HCT-116 (COLON); cited from earlier work.

Where two headings read alike, the source gives them in different places.

`CCCCOc1ccc(C(=O)Oc2ccc3nc4c(c(CC)c3c2)Cn2c-4cc3c(c2=O)COC(=O)C3(O)CC)cc1` (centres unmarked) [10-(4-butoxybenzoyloxy)-7-ethylcamptothecin]: the GI50 in experiment [1] was 5.5 nM; in experiment [2], 141 nM; in experiment [3], 5.62 nM; in experiment [4], 28.2 nM.

On to `CC[C@@]1(O)C(=O)OCc2c1cc1n(c2=O)Cc2cc3ccccc3nc2-1` [Camptothecin], for which the GI50 in experiment [5] is 25 nM; in experiment [6], 16 nM; in experiment [7] it was 160 nM; in experiment [8], 40 nM.

Turning to `CCc1c2c(nc3ccc(OC(=O)CCC(=O)OCc4ccccc4)cc13)-c1cc3c(c(=O)n1C2)COC(=O)C3(O)CC` (centres unmarked) [10-(benzyl succinate)-7-ethylcamptothecin], the GI50 in experiment [1] came to 1.29 nM; in experiment [2] it was 50.1 nM; in experiment [3], 10.7 nM; in experiment [4], 0.372 nM.

Take `CCc1c2c(nc3ccc(OC(=O)N4CCC(N5CCCCC5)CC4)cc13)-c1cc3c(c(=O)n1C2)COC(=O)[C@]3(O)CC` [Irrinotecan, irinotecan]: the results for the GI50 in experiment [6] and in experiment [8] were 5100 nM and 7900 nM, respectively.

As to `CCc1c2c(nc3ccc(OC(=O)CCC(=O)OCc4ccc(C)cc4)cc13)-c1cc3c(c(=O)n1C2)COC(=O)C3(O)CC` (centres unmarked) [10-(4-methylbenzyl succinate)-7-ethylcamptothecin], the GI50 in experiment [1] came out at 6.16 nM; in experiment [2] it was 75.4 nM; in experiment [3], 2.29 nM; in experiment [4], 5.37 nM.

With `CC[C@@]1(O)C(=O)OCc2c1cc1n(c2=O)Cc2cc3cc(O)ccc3nc2-1` [10-hydroxycamptothecin], the GI50 was 11 nM in experiment [6], 356 nM in experiment [7] and 27 nM in experiment [8].

On to “10-(n-butyl carbonoyloxy)-7-ethylcamptothecin”, for which the GI50 in experiment [1] came to 0.275 nM; in experiment [2], 120 nM; in experiment [3] it was 0.58 nM; in experiment [4], 2.95 nM.

As for `CCc1c2c(nc3ccc(OC(=O)CC4(CC(=O)OCc5ccccc5)CCCC4)cc13)-c1cc3c(c(=O)n1C2)COC(=O)[C@]3(O)CC` [10-(benzyl 3,3-tetramethyleneglutarate)-7-ethylcamptothecin], the GI50 worked out at 2.95 nM in experiment [1], 85.1 nM in experiment [2], 3.49 nM in experiment [3] and 8.91 nM in experiment [4].

As for `CCc1c2c(nc3ccc(OC(=O)CCC(=O)OCc4c(C)cc(C)cc4C)cc13)-c1cc3c(c(=O)n1C2)COC(=O)C3(O)CC` (centres unmarked) [10-(2,4,6-trimethylbenzyl succinate)-7-ethylcamptothecin], the GI50 turned out to be 3.67 nM in experiment [1], 31.6 nM in experiment [2], 3.54 nM in experiment [3] and 5.12 nM in experiment [4].

For the compound `CCCCCCCCOC(=O)CCC(=O)Oc1ccc2nc3c(c(CC)c2c1)Cn1c-3cc2c(c1=O)COC(=O)C2(O)CC` (centres unmarked) [10-(1-octyl succinate)-7-ethylcamptothecin], the GI50 in experiment [1] was determined as 3.46 nM; in experiment [2] it was 661 nM; in experiment [3], 9.75 nM; in experiment [4] it was 2460 nM.

On to `CCC1(OC(=O)CCC(=O)OCc2ccccc2)C(=O)OCc2c1cc1n(c2=O)Cc2cc3ccccc3nc2-1` (centres unmarked) [20-(benzyl succinate)camptothecin], for which the GI50 was 562 nM in experiment [1], 1300 nM in experiment [2], 630 nM in experiment [3] and 380 nM in experiment [4].

As for `CCc1c2c(nc3ccc(OCc4ccccc4)cc13)-c1cc3c(c(=O)n1C2)COC(=O)[C@]3(O)CC` [10-benzyloxy-7-ethylcamptothecin], the GI50 in experiment [1] is 15 nM; in experiment [2], 5.66 nM; in experiment [3] it was 4.52 nM; in experiment [4], 0.32 nM.

Consider `CCc1c2c(nc3ccc(OC(=O)NC(C)(C)C)cc13)-c1cc3c(c(=O)n1C2)COC(=O)C3(O)CC` (centres unmarked) [10-(N-t-butyl carbamate)-7-ethylcamptothecin], for which the GI50 in experiment [1] is 1.29 nM; in experiment [2] it was 158 nM; in experiment [3], 15.1 nM; in experiment [4] it was 5.75 nM.

With `CC[C@@]1(O)C(=O)OCc2c1cc1n(c2=O)Cc2cc3c(CN(C)C)c(O)ccc3nc2-1` [Topotecan, topotecan], the GI50 in experiment [6] is 19.9 nM; in experiment [7] it was 501 nM; in experiment [8], 39.8 nM.

Turning to `CCc1c2c(nc3ccc(OC(=O)CCC(=O)OCc4c(C)c(C)c(C)c(C)c4C)cc13)-c1cc3c(c(=O)n1C2)COC(=O)C3(O)CC` (centres unmarked) [10-(2,3,4,5,6-pentamethylbenzyl succinate)-7-ethylcamptothecin], the GI50 is 2.13 nM in experiment [1], 32.4 nM in experiment [2], 3.09 nM in experiment [3] and 3.82 nM in experiment [4].

Take “10-(N-n-butyl carbamate)-7-ethylcamptothecin”: the GI50 in experiment [1] turned out to be 0.398 nM; in experiment [2], 44.7 nM; in experiment [3], 1.1 nM; in experiment [4], 1.2 nM.

On to `CCCCCCCCOC(=O)CCC(=O)OC1(CC)C(=O)OCc2c1cc1n(c2=O)Cc2cc3ccccc3nc2-1` (centres unmarked) [20-(1-octyl succinate)camptothecin], for which the GI50 in experiment [1] was 2420 nM; in experiment [2], 354 nM; in experiment [3], 766 nM; in experiment [4], 165 nM.

For the compound `CCc1c2c(nc3ccc(O)cc13)-c1cc3c(c(=O)n1C2)COC(=O)[C@]3(O)CC` [7-ethyl-10hydroxycamptothecin, 7-ethyl-10-hydroxycamptothecin], the GI50 in experiment [5] was 1 nM; in experiment [6], 1.4 nM; in experiment [7], 7.9 nM; in experiment [8] it was 21 nM.
